Laboratory results as given in patent publication US20230085307A1, “PYRIDAZINONE COMPOUND AND HERBICIDE” (NISSAN CHEMICAL CORPORATION, priority 2019, published 2023).

Tests used:
barnyard grass [1] = experiment: Test Example 4: herbicidal effect by soil treatment (Table 19, symbol H); type: in vivo, barnyard grass (Echinochloa crus-galli); details: amount of applied herbicide 320 g/ha
In short: (§1)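 Herbicidal effect was rated 3 weeks after treatment, using the scoring criteria of an earlier test. The compound, formulated as an emulsion and diluted in water to a set herbicide amount, had been sprayed uniformly on soil over freshly sown seeds. Growth took place in a greenhouse at 25° C. to 30° C.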

redroot pigweed [2] = experiment: Test Example 5: herbicidal effect by foliage application, plastic box (Table 20, symbol N); type: in vivo, redroot pigweed (Amaranthus retroflexus); details: foliage application, 320 g/ha, evaluated three weeks after application
In short: (§2)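 Foliar spray test: emulsion formulation diluted in water to a set application rate, sprayed onto 14-day-old plants raised in diluvial soil at 25° C to 30° C under glass. Both herbicidal effect and crop effect rated visually three weeks later.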

southern crabgrass [3] = experiment: Test Example 4: herbicidal effect by soil treatment (Table 19, symbol F); type: in vivo, southern crabgrass (Digitaria ciliaris); details: amount of applied herbicide 320 g/ha
In short: as §1

blackgrass [4] = experiment: Test Example 4: herbicidal effect by soil treatment (Table 19, symbol J); type: in vivo, blackgrass (Alopecurus myosuroides); details: amount of applied herbicide 320 g/ha
In short: as §1

wild oat [5] = experiment: Test Example 5: herbicidal effect by foliage application, plastic box (Table 20, symbol I); type: in vivo, wild oat (Avena fatua); details: foliage application, 320 g/ha, evaluated three weeks after application
In short: as §2

chickweed [6] = experiment: Test Example 5: herbicidal effect by foliage application, plastic box (Table 20, symbol P); type: in vivo, common chickweed (Stellaria media); details: foliage application, 320 g/ha, evaluated three weeks after application
In short: as §2

lambsquarters [7] = experiment: Test Example 4: herbicidal effect by soil treatment (Table 19, symbol O); type: in vivo, lambsquarters (Chenopodium album); details: amount of applied herbicide 320 g/ha
In short: as §1

redroot pigweed [8] = experiment: Test Example 4: herbicidal effect by soil treatment (Table 19, symbol N); type: in vivo, redroot pigweed (Amaranthus retroflexus); details: amount of applied herbicide 320 g/ha
In short: as §1

false cleavers [9] = experiment: Test Example 4: herbicidal effect by soil treatment (Table 19, symbol Q); type: in vivo, false cleavers (Galium spurium); details: amount of applied herbicide 320 g/ha
In short: as §1

blackgrass [10] = experiment: Test Example 5: herbicidal effect by foliage application, plastic box (Table 20, symbol J); type: in vivo, blackgrass (Alopecurus myosuroides); details: foliage application, 320 g/ha, evaluated three weeks after application
In short: as §2

persian speedwell = experiment: Test Example 5: herbicidal effect by foliage application, plastic box (Table 20, symbol R); type: in vivo, Persian speedwell (Veronica persica); details: foliage application, 320 g/ha, evaluated three weeks after application
In short: as §2

false cleavers [11] = experiment: Test Example 5: herbicidal effect by foliage application, plastic box (Table 20, symbol Q); type: in vivo, false cleavers (Galium spurium); details: foliage application, 320 g/ha, evaluated three weeks after application
In short: as §2

Italian ryegrass [12] = experiment: Test Example 4: herbicidal effect by soil treatment (Table 19, symbol K); type: in vivo, Italian ryegrass (Lolium multiflorum); details: amount of applied herbicide 320 g/ha
In short: as §1

barnyard grass [13] = experiment: Test Example 5: herbicidal effect by foliage application, plastic box (Table 20, symbol H); type: in vivo, barnyard grass (Echinochloa crus-galli); details: foliage application, 320 g/ha, evaluated three weeks after application
In short: as §2

windgrass [14] = experiment: Test Example 4: herbicidal effect by soil treatment (Table 19, symbol L); type: in vivo, windgrass (Apera spica-venti); details: amount of applied herbicide 320 g/ha
In short: as §1

chickweed [15] = experiment: Test Example 4: herbicidal effect by soil treatment (Table 19, symbol P); type: in vivo, common chickweed (Stellaria media); details: amount of applied herbicide 320 g/ha
In short: as §1

green foxtail [16] = experiment: Test Example 5: herbicidal effect by foliage application, plastic box (Table 20, symbol G); type: in vivo, green foxtail (Setaria viridis); details: foliage application, 320 g/ha, evaluated three weeks after application
In short: as §2

velvetleaf [17] = experiment: Test Example 5: herbicidal effect by foliage application, plastic box (Table 20, symbol M); type: in vivo, velvetleaf (Abutilon theophrasti); details: foliage application, 320 g/ha, evaluated three weeks after application
In short: as §2

Italian ryegrass [18] = experiment: Test Example 5: herbicidal effect by foliage application, plastic box (Table 20, symbol K); type: in vivo, Italian ryegrass (Lolium multiflorum); details: foliage application, 320 g/ha, evaluated three weeks after application
In short: as §2

lambsquarters [19] = experiment: Test Example 5: herbicidal effect by foliage application, plastic box (Table 20, symbol O); type: in vivo, lambsquarters (Chenopodium album); details: foliage application, 320 g/ha, evaluated three weeks after application
In short: as §2

southern crabgrass [20] = experiment: Test Example 5: herbicidal effect by foliage application, plastic box (Table 20, symbol F); type: in vivo, southern crabgrass (Digitaria ciliaris); details: foliage application, 320 g/ha, evaluated three weeks after application
In short: as §2

wild oat [21] = experiment: Test Example 4: herbicidal effect by soil treatment (Table 19, symbol I); type: in vivo, wild oat (Avena fatua); details: amount of applied herbicide 320 g/ha
In short: as §1

green foxtail [22] = experiment: Test Example 4: herbicidal effect by soil treatment (Table 19, symbol G); type: in vivo, green foxtail (Setaria viridis); details: amount of applied herbicide 320 g/ha
In short: as §1

velvetleaf [23] = experiment: Test Example 4: herbicidal effect by soil treatment (Table 19, symbol M); type: in vivo, velvetleaf (Abutilon theophrasti); details: amount of applied herbicide 320 g/ha
In short: as §1

windgrass [24] = experiment: Test Example 5: herbicidal effect by foliage application, plastic box (Table 20, symbol L); type: in vivo, windgrass (Apera spica-venti); details: foliage application, 320 g/ha, evaluated three weeks after application
In short: as §2

SMILES: COc1cccc(OC)c1-c1sc2ccc(Cl)cc2c1-c1c(O)c(C)nn(C)c1=O [2-121]
- H: barnyard grass, herbicidal effect rating (barnyard grass [1]): 0 (Herbicidal rate of 5% or less (almost no effect))
- herbicidal effect on N: redroot pigweed (redroot pigweed [2]): 0 (Herbicidal rate of 5% or less (almost no effect))
- F: southern crabgrass, herbicidal effect rating (southern crabgrass [3]): 0 (Herbicidal rate of 5% or less (almost no effect))
- J: blackgrass, herbicidal effect rating (blackgrass [4]): 0 (Herbicidal rate of 5% or less (almost no effect))
- herbicidal effect on I: wild oat (wild oat [5]): 0 (Herbicidal rate of 5% or less (almost no effect))
- herbicidal effect on P: chickweed (chickweed [6]): 3 (Herbicidal rate of 40% or more and less than 70%)
- O: lambsquarters, herbicidal effect rating (lambsquarters [7]): 0 (Herbicidal rate of 5% or less (almost no effect))
- N: redroot pigweed, herbicidal effect rating (redroot pigweed [8]): 0 (Herbicidal rate of 5% or less (almost no effect))
- Q: false cleavers, herbicidal effect rating (false cleavers [9]): 0 (Herbicidal rate of 5% or less (almost no effect))
- herbicidal effect on J: blackgrass (blackgrass [10]): 0 (Herbicidal rate of 5% or less (almost no effect))
- herbicidal effect on R: persian speedwell (persian speedwell): 0 (Herbicidal rate of 5% or less (almost no effect))
- herbicidal effect on Q: false cleavers (false cleavers [11]): 2 (Herbicidal rate of 20% or more and less than 40%)
- K: Italian ryegrass, herbicidal effect rating (Italian ryegrass [12]): 0 (Herbicidal rate of 5% or less (almost no effect))
- herbicidal effect on H: barnyard grass (barnyard grass [13]): 0 (Herbicidal rate of 5% or less (almost no effect))
- L: windgrass, herbicidal effect rating (windgrass [14]): 0 (Herbicidal rate of 5% or less (almost no effect))
- P: chickweed, herbicidal effect rating (chickweed [15]): 3 (Herbicidal rate of 40% or more and less than 70%)
- herbicidal effect on G: green foxtail (green foxtail [16]): 0 (Herbicidal rate of 5% or less (almost no effect))
- herbicidal effect on M: velvetleaf (velvetleaf [17]): 0 (Herbicidal rate of 5% or less (almost no effect))
- herbicidal effect on K: Italian ryegrass (Italian ryegrass [18]): 0 (Herbicidal rate of 5% or less (almost no effect))
- herbicidal effect on O: lambsquarters (lambsquarters [19]): 0 (Herbicidal rate of 5% or less (almost no effect))
- herbicidal effect on F: southern crabgrass (southern crabgrass [20]): 0 (Herbicidal rate of 5% or less (almost no effect))
- I: wild oat, herbicidal effect rating (wild oat [21]): 0 (Herbicidal rate of 5% or less (almost no effect))
- G: green foxtail, herbicidal effect rating (green foxtail [22]): 0 (Herbicidal rate of 5% or less (almost no effect))
- M: velvetleaf, herbicidal effect rating (velvetleaf [23]): 0 (Herbicidal rate of 5% or less (almost no effect))
- herbicidal effect on L: windgrass (windgrass [24]): 0 (Herbicidal rate of 5% or less (almost no effect))
